≈ marks a conversion by molar mass, not a printed value.
Columns and labels:
Assay type in all cases: functional
Staphylococcus aureus [1] = experiment: Antibacterial activity against vancomycin-intermediate methicillin-resistant Staphylococcus aureus assessed as post-antibiotic sub-MIC effect at 0.3 times MIC concentration pretreated with 6 times MIC concentration for 1 hr followed by 1:1000 dilution by viable plate count method
Escherichia coli [2] = experiment: Antibacterial activity against Escherichia coli assessed as post antibiotic effect at 6 times MIC concentration incubated for 1 hr measured after 1:1000 dilution by viable plate count method
Haemophilus influenzae [3] = experiment: Antibacterial activity against amoxicillin, clavulanate-resistant Haemophilus influenzae expressing beta-lactamase assessed as post-antibiotic sub-MIC effect at 0.3 times MIC concentration pretreated with 10 times MIC concentration for 1 hr followed by 1:1000 dilution by viable plate count method
Haemophilus influenzae [4] = experiment: Antibacterial activity against beta-lactamase deficient ampicillin-resistant Haemophilus influenzae assessed as post-antibiotic sub-MIC effect at 0.3 times MIC concentration pretreated with 10 times MIC concentration for 1 hr followed by 1:1000 dilution by viable plate count method
Acinetobacter baumannii [5] = experiment: Antibacterial activity against Acinetobacter baumannii assessed as sub-MIC effect at 0.4 times MIC concentration incubated for 1 hr by viable plate count method
Acinetobacter baumannii [6] = experiment: (§1) Antibacterial activity against Acinetobacter baumannii assessed as post-antibiotic sub-MIC effect at 0.2 times MIC concentration pretreated with 6 times MIC concentration for 1 hr followed by 1:1000 dilution by viable plate count method
Haemophilus influenzae [7] = experiment: Antibacterial activity against beta-lactamase deficient ampicillin-resistant Haemophilus influenzae assessed as post-antibiotic sub-MIC effect at 0.4 times MIC concentration pretreated with 10 times MIC concentration for 1 hr followed by 1:1000 dilution by viable plate count method
Haemophilus influenzae [8] = experiment: Antibacterial activity against amoxicillin, clavulanate-resistant Haemophilus influenzae expressing beta-lactamase by macrodilution method
Staphylococcus aureus [9] = experiment: Antibacterial activity against vancomycin-intermediate methicillin-resistant Staphylococcus aureus assessed as post-antibiotic sub-MIC effect at 0.3 times MIC concentration pretreated with 10 times MIC concentration for 1 hr followed by 1:1000 dilution by viable plate count method
Enterobacter cloacae [10] = experiment: Antibacterial activity against Enterobacter cloacae assessed as post antibiotic effect
Escherichia coli [11] = experiment: Antibacterial activity against Escherichia coli assessed as post antibiotic effect at 10 times MIC concentration incubated for 1 hr measured after 1:1000 dilution by viable plate count method
Enterococcus faecalis [12] = experiment: Antibacterial activity against vancomycin-sensitive Enterococcus faecalis assessed as post-antibiotic sub-MIC effect at 0.3 times MIC concentration pretreated with 10 times MIC concentration for 1 hr followed by 1:1000 dilution by viable plate count method
Enterococcus faecalis [13] = experiment: Antibacterial activity against vancomycin-sensitive Enterococcus faecalis assessed as sub-MIC effect at 0.2 times MIC concentration incubated for 1 hr by viable plate count method
Staphylococcus aureus [14] = experiment: Antibacterial activity against vancomycin-sensitive methicillin-resistant Staphylococcus aureus assessed as post-antibiotic sub-MIC effect at 0.4 times MIC concentration pretreated with 6 times MIC concentration for 1 hr followed by 1:1000 dilution by viable plate count method
Acinetobacter baumannii [15] = experiment: as §1, with “against multidrug-resistant” for “against”, “baumannii producing OXA-24 and OXA-51 beta-lactamases” for “baumannii”, “0.4” for “0.2”, “10” for “6”
Staphylococcus aureus [16] = experiment: Antibacterial activity against vancomycin-sensitive methicillin-resistant Staphylococcus aureus assessed as post antibiotic effect at 6 times MIC concentration incubated for 1 hr measured after 1:1000 dilution by viable plate count method
Streptococcus pneumoniae [17] = experiment: Antibacterial activity against penicillin-susceptible Streptococcus pneumoniae assessed as post antibiotic effect at 10 times MIC concentration incubated for 1 hr measured after 1:1000 dilution by viable plate count method
Streptococcus pneumoniae [18] = experiment: Antibacterial activity against penicillin-intermediate Streptococcus pneumoniae assessed as sub-MIC effect at 0.3 times MIC concentration incubated for 1 hr by viable plate count method
Enterobacter cloacae [19] = experiment: Antibacterial activity against Enterobacter cloacae assessed as post-antibiotic sub-MIC effect at 0.3 times MIC concentration pretreated with 2 times MIC concentration for 1 hr followed by 1:1000 dilution by viable plate count method
Acinetobacter baumannii [20] = experiment: as §1, with “against multidrug-resistant” for “against”, “baumannii producing OXA-24 and OXA-51 beta-lactamases” for “baumannii”, “0.3” for “0.2”, “10” for “6”
Acinetobacter baumannii [21] = experiment: Antibacterial activity against multidrug-resistant Acinetobacter baumannii producing OXA-24 and OXA-51 beta-lactamases assessed as sub-MIC effect at 0.2 times MIC concentration incubated for 1 hr by viable plate count method
Klebsiella pneumoniae [22] = experiment: Antibacterial activity against Klebsiella pneumoniae assessed as sub-MIC effect at 0.4 times MIC concentration incubated for 1 hr by viable plate count method
Haemophilus influenzae [23] = experiment: Antibacterial activity against beta-lactamase deficient and ampicillin-resistant Haemophilus influenzae assessed as sub-MIC effect at 0.4 times MIC concentration incubated for 1 hr by viable plate count method
Streptococcus pneumoniae [24] = experiment: Antibacterial activity against penicillin-susceptible Streptococcus pneumoniae assessed as post-antibiotic sub-MIC effect at 0.2 times MIC concentration pretreated with 10 times MIC concentration for 1 hr followed by 1:1000 dilution by viable plate count method
Haemophilus influenzae [25] = experiment: Antibacterial activity against amoxicillin, clavulanate-resistant Haemophilus influenzae expressing beta-lactamase assessed as post-antibiotic sub-MIC effect at 0.2 times MIC concentration pretreated with 10 times MIC concentration for 1 hr followed by 1:1000 dilution by viable plate count method
Enterococcus faecalis [26] = experiment: Antibacterial activity against vancomycin-resistant Enterococcus faecalis assessed as sub-MIC effect at 0.3 times MIC concentration incubated for 1 hr by viable plate count method
Klebsiella pneumoniae [27] = experiment: Antibacterial activity against Klebsiella pneumoniae assessed as post-antibiotic sub-MIC effect at 0.2 times MIC concentration pretreated with 2 times MIC concentration for 1 hr followed by 1:1000 dilution by viable plate count method
Acinetobacter baumannii [28] = experiment: Antibacterial activity against Acinetobacter baumannii assessed as sub-MIC effect at 0.2 times MIC concentration incubated for 1 hr by viable plate count method
Acinetobacter baumannii [29] = experiment: Antibacterial activity against Acinetobacter baumannii assessed as post-antibiotic sub-MIC effect at 0.3 times MIC concentration pretreated with 6 times MIC concentration for 1 hr followed by 1:1000 dilution by viable plate count method
Streptococcus pneumoniae [30] = experiment: Antibacterial activity against penicillin-susceptible Streptococcus pneumoniae by macrodilution method
Escherichia coli [31] = experiment: Antibacterial activity against Escherichia coli assessed as post-antibiotic sub-MIC effect at 0.2 times MIC concentration pretreated with 10 times MIC concentration for 1 hr followed by 1:1000 dilution by viable plate count method
Enterococcus faecalis [32] = experiment: Antibacterial activity against vancomycin-resistant Enterococcus faecalis assessed as sub-MIC effect at 0.2 times MIC concentration incubated for 1 hr by viable plate count method
Enterococcus faecalis [33] = experiment: Antibacterial activity against vancomycin-resistant Enterococcus faecalis assessed as post-antibiotic sub-MIC effect at 0.2 times MIC concentration pretreated with 10 times MIC concentration for 1 hr followed by 1:1000 dilution by viable plate count method
Haemophilus influenzae [34] = experiment: Antibacterial activity against beta-lactamase deficient ampicillin-resistant Haemophilus influenzae assessed as post-antibiotic sub-MIC effect at 0.2 times MIC concentration pretreated with 10 times MIC concentration for 1 hr followed by 1:1000 dilution by viable plate count method

SMILES: CN(C)c1cc(NC(=O)CNC(C)(C)C)c(O)c2c1C[C@H]1C[C@H]3[C@H](N(C)C)C(O)=C(C(N)=O)C(=O)[C@@]3(O)C(O)=C1C2=O [TIGECYCLINE]
- PAE (Staphylococcus aureus [1]): 9.8 h
- PAE (Escherichia coli [2]): 1.9 h
- PAE (Haemophilus influenzae [3]): 5.4 h
- PAE (Haemophilus influenzae [4]): 2.8 h
- PAE (Acinetobacter baumannii [5]): 11.2 h
- PAE (Acinetobacter baumannii [6]): 5.2 h
- PAE (Haemophilus influenzae [7]): 2.8 h
- MIC (Haemophilus influenzae [8]): 0.12 µg/mL
- PAE (Staphylococcus aureus [9]): 9.9 h
- PAE (Enterobacter cloacae [10]): 2 h
- PAE (Escherichia coli [11]): 2 h
- PAE (Enterococcus faecalis [12]): 6.8 h
- PAE (Enterococcus faecalis [13]): 0 h
- PAE (Staphylococcus aureus [14]): 6.9 h
- PAE (Acinetobacter baumannii [15]): 3.8 h
- PAE (Staphylococcus aureus [16]): 2.9 h
- PAE (Streptococcus pneumoniae [17]): 3.7 h
- PAE (Streptococcus pneumoniae [18]): 5.7 h
- PAE (Enterobacter cloacae [19]): 4.9 h
- PAE (Acinetobacter baumannii [20]): 2.2 h
- PAE (Acinetobacter baumannii [21]): 0.4 h
- PAE (Klebsiella pneumoniae [22]): 0.7 h
- PAE (Haemophilus influenzae [23]): 0.8 h
- PAE (Streptococcus pneumoniae [24]): 5.9 h
- PAE (Haemophilus influenzae [25]): 3.9 h
- PAE (Enterococcus faecalis [26]): 0.3 h
- PAE (Klebsiella pneumoniae [27]): 1.8 h
- PAE (Acinetobacter baumannii [28]): 0.3 h
- PAE (Acinetobacter baumannii [29]): 10.7 h
- MIC (Streptococcus pneumoniae [30]): 0.03 µg/mL (≈ 0.0512 µM)
- PAE (Escherichia coli [31]): 2.4 h
- PAE (Enterococcus faecalis [32]): 0.4 h
- PAE (Enterococcus faecalis [33]): 7.6 h
- PAE (Haemophilus influenzae [34]): 2.8 h
